Measurements: ChEMBL document CHEMBL5465560, “Selectivity Literature for EUbOPEN Chemogenomic Library” (2024)

Assays:
[1] = molecular target: Serine/threonine-protein kinase MRCK alpha (Homo sapiens) (UniProt Q5VT25); experiment: Selectivity interaction (Ambit KINOMEscan) EUB0000092b CDC42BPA; details: at 10 µM
[2] = molecular target: T1, Serine/threonine-protein kinase haspin (Homo sapiens) (UniProt Q8TF76); experiment: Selectivity interaction (KinomeScan (DiscoverX)) EUB0000666a GSG2; details: at 10 µM
T1 sequence (whole entry): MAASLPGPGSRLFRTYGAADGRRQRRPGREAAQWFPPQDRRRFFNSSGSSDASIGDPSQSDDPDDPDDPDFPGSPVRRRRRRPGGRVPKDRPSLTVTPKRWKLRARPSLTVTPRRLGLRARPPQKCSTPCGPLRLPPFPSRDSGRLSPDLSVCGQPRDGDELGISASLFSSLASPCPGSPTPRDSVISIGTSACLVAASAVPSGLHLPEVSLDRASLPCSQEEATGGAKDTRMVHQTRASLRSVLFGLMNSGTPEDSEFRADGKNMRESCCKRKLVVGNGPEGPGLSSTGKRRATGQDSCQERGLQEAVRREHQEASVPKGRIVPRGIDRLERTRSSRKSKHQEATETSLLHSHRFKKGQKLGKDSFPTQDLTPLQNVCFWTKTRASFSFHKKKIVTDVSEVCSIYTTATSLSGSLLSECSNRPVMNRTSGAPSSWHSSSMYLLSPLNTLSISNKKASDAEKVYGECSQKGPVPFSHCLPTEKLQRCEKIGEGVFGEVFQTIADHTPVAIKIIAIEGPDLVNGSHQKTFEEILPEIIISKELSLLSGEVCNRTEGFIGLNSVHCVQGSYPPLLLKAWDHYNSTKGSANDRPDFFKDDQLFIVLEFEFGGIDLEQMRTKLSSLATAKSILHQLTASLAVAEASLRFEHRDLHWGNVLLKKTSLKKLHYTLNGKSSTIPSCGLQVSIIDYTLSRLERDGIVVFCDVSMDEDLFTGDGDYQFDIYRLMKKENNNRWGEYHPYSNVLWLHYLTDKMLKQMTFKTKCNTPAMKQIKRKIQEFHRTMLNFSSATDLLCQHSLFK

[3] = molecular target: Mitogen-activated protein kinase 7 (Homo sapiens) (UniProt Q13164); experiment: Selectivity interaction (Kinase panel (Z-LYTE Assay)) EUB0001632a MAPK7; details: at 10 µM
[4] = molecular target: Serine/threonine-protein kinase SIK3 (Homo sapiens) (UniProt Q9Y2K2); experiment: Selectivity interaction (ActivX KiNativ screen (kinase selectivity in THP-1 cell lysates)) EUB0000639a SIK3; format: subcellular; details: lysate
Chain of Serine/threonine-protein kinase SIK3 (Homo sapiens) (Q9Y2K2 whole entry, looked up): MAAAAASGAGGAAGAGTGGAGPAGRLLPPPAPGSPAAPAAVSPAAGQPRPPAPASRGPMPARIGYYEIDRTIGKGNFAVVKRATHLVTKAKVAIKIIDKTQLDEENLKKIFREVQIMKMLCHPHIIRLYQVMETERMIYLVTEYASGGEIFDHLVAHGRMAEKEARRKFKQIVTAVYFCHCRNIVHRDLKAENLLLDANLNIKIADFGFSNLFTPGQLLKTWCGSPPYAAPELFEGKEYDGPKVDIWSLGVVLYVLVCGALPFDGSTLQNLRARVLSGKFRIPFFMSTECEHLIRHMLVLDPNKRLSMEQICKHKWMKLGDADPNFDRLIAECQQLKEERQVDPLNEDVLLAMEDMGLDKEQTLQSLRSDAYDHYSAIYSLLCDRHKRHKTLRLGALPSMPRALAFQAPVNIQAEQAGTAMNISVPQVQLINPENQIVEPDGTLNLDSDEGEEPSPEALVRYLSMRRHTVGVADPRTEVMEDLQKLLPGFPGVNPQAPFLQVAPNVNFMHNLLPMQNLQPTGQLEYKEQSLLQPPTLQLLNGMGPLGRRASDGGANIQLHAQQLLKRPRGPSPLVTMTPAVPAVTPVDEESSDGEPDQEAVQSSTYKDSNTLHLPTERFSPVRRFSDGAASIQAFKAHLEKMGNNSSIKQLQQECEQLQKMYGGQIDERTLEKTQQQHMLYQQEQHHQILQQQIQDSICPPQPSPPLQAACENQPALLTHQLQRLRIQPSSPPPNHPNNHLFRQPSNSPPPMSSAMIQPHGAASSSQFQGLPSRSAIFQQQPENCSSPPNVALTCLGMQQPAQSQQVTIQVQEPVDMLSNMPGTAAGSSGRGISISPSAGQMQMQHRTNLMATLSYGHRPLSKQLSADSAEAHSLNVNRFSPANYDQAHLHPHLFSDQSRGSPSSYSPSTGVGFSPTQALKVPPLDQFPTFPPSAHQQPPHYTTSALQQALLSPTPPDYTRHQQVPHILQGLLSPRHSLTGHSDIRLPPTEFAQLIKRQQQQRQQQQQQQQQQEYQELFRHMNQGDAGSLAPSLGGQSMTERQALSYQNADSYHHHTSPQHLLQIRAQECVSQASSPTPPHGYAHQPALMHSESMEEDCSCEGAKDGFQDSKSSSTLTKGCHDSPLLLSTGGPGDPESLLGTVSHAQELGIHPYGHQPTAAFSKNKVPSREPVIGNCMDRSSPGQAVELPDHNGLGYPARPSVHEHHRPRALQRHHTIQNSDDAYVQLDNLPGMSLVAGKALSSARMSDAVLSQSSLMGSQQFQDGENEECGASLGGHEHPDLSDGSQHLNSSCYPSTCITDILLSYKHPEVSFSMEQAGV

[5] = test system: Hepatocyte growth factor receptor (Homo sapiens), P08581 [M1250T]; experiment: (§1) Selectivity interaction (KinomeScan (DiscoverX)) EUB0000607a MET; details: at 10 µM
[6] = molecular target: Hepatocyte growth factor receptor (Homo sapiens, UniProt P08581); experiment: as §1; details: at 10 µM
Chain of Hepatocyte growth factor receptor (P08581 whole entry): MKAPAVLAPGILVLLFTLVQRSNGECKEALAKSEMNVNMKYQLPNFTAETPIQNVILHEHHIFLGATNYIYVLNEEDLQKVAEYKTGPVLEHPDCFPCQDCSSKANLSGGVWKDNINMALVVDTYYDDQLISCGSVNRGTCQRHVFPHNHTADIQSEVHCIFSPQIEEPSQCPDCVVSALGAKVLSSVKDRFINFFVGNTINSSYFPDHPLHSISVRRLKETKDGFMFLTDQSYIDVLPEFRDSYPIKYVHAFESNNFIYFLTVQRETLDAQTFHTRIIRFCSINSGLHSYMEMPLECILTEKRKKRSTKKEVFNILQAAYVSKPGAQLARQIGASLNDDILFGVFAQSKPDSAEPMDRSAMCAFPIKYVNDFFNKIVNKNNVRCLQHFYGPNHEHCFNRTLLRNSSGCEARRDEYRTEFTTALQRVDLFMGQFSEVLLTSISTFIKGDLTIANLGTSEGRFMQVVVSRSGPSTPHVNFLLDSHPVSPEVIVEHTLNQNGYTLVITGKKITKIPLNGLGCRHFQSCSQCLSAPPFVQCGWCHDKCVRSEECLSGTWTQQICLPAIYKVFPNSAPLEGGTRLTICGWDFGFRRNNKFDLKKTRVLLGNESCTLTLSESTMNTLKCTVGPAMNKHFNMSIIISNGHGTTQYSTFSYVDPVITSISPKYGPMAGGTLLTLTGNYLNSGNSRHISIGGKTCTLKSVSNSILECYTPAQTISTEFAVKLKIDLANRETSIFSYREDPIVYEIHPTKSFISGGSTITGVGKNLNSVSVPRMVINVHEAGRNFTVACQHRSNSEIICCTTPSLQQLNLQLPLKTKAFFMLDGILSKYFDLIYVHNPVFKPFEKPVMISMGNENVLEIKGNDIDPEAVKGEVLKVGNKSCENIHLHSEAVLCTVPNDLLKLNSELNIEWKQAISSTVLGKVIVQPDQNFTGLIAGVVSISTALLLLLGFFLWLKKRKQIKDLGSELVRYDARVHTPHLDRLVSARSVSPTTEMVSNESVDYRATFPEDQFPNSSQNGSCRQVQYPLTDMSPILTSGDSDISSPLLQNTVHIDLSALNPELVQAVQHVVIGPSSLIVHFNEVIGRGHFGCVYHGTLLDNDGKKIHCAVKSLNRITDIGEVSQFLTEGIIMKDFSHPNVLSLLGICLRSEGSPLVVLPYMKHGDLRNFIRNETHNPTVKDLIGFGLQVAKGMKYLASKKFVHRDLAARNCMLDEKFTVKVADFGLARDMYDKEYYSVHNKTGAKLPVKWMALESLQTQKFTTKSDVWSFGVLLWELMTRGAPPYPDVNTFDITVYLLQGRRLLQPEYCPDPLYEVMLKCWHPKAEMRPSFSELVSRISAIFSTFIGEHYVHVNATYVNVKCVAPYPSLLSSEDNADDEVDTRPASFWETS

[7] = test system: Hepatocyte growth factor receptor (Homo sapiens), P08581 [Y1235D]; experiment: as §1; details: at 10 µM
Chain of Hepatocyte growth factor receptor (Homo sapiens), P08581 [Y1235D] (P08581 whole entry Y1235D): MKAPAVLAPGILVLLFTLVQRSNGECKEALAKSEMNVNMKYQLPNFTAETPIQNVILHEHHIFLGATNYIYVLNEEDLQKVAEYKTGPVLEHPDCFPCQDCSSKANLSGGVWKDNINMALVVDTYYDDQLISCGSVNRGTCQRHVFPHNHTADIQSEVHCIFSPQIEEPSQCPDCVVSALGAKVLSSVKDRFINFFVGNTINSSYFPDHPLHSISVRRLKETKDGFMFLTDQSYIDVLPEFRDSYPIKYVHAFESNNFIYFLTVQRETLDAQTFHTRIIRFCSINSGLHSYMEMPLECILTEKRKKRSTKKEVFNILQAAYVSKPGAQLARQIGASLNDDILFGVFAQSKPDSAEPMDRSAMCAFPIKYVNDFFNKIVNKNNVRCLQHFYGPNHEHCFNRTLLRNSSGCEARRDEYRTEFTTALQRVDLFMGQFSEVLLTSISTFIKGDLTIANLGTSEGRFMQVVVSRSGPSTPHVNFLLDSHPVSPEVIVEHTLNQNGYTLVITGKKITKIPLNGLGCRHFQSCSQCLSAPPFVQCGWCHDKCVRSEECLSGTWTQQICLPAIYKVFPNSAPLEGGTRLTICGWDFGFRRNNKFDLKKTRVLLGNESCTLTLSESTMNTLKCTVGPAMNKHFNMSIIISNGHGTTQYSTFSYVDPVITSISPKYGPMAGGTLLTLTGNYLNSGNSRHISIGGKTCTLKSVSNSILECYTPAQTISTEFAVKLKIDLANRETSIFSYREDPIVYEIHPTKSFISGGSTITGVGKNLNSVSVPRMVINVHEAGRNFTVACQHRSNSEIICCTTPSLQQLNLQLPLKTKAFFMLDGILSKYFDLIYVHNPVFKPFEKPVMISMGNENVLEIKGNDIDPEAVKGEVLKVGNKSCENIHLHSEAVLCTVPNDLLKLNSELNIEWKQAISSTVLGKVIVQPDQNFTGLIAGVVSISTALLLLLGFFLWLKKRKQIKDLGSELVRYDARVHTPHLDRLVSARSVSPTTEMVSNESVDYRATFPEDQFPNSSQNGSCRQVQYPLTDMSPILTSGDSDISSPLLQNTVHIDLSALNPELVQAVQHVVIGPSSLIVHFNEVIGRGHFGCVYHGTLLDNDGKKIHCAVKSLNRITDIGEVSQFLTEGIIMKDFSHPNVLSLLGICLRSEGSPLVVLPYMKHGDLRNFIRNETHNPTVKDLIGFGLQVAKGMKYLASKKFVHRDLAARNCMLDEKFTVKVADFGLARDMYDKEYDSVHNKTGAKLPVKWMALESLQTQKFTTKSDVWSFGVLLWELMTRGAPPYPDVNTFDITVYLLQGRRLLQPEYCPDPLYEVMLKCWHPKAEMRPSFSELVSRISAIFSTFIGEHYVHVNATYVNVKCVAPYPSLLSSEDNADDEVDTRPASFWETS

[8] = molecular target: Serine/threonine-protein kinase 24 (Homo sapiens) (UniProt Q9Y6E0); experiment: Selectivity interaction (KinomeScan (DiscoverX)) EUB0000607a STK24; details: at 10 µM
Chain of Serine/threonine-protein kinase 24 (Homo sapiens) (Q9Y6E0 whole entry, looked up): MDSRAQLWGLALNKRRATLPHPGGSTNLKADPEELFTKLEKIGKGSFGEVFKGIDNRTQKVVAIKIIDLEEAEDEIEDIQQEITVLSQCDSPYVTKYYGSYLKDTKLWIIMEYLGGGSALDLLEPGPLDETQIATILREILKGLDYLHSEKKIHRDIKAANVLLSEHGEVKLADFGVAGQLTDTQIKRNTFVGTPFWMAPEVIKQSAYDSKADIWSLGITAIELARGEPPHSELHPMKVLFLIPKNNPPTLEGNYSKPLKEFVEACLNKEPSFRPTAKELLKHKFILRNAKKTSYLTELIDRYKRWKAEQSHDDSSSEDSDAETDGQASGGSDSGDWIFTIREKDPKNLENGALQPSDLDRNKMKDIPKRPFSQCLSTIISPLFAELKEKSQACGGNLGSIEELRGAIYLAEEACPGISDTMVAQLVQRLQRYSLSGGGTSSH

[9] = molecular target: T2, NUAK family SNF1-like kinase 2 (Homo sapiens) (UniProt Q9H093); experiment: Selectivity interaction (KinomeScan (DiscoverX)) EUB0000607a NUAK2; details: at 10 µM
T2 sequence (whole entry): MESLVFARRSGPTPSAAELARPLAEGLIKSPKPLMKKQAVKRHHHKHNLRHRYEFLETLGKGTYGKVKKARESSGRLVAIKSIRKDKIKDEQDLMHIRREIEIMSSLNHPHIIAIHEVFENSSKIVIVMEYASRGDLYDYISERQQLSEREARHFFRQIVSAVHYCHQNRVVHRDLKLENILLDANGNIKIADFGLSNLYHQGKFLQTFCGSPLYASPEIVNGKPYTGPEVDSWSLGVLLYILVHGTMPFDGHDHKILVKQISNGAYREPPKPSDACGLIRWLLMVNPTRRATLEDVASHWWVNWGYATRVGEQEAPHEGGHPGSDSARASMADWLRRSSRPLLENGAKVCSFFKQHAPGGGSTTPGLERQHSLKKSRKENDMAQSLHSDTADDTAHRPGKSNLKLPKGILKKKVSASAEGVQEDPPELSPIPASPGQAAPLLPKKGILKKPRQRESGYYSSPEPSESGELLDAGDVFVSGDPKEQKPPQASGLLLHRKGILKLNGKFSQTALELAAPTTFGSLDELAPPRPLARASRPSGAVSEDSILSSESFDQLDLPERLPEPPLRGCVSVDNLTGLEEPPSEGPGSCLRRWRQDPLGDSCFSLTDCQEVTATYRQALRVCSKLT

[10] = molecular target: T3, Serine/threonine-protein kinase D3 (Homo sapiens) (UniProt O94806); experiment: Selectivity interaction (KinomeScan (DiscoverX)) EUB0000595a PRKD3; details: at 10 µM
T3 sequence (whole entry): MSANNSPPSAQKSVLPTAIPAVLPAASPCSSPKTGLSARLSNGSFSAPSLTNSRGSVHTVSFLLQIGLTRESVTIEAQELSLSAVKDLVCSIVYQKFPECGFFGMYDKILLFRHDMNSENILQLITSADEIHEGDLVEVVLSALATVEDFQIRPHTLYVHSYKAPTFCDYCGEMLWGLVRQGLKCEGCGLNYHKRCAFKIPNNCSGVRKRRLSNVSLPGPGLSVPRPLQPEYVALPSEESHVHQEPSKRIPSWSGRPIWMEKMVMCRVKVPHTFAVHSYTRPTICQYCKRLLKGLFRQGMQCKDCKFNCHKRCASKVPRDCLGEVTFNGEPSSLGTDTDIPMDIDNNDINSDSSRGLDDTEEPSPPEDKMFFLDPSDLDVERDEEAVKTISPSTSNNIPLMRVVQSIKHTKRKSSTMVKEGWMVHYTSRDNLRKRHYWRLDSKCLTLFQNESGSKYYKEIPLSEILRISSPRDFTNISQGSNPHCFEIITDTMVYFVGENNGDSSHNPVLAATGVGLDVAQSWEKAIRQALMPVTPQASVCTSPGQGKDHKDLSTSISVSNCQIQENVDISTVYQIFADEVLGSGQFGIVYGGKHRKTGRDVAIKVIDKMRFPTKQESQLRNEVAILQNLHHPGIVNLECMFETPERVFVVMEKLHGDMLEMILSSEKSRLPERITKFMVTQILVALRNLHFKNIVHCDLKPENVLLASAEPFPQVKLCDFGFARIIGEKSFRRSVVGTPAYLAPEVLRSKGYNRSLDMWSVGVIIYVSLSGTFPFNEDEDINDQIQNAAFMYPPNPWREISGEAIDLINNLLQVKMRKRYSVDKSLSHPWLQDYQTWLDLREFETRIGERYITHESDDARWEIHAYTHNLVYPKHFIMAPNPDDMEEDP

[11] = molecular target: Cyclin-dependent kinase 8 (Homo sapiens, UniProt P49336); experiment: Selectivity interaction (KinomeScan (DiscoverX)) EUB0000045b CDK8
Chain of Cyclin-dependent kinase 8 (P49336 whole entry): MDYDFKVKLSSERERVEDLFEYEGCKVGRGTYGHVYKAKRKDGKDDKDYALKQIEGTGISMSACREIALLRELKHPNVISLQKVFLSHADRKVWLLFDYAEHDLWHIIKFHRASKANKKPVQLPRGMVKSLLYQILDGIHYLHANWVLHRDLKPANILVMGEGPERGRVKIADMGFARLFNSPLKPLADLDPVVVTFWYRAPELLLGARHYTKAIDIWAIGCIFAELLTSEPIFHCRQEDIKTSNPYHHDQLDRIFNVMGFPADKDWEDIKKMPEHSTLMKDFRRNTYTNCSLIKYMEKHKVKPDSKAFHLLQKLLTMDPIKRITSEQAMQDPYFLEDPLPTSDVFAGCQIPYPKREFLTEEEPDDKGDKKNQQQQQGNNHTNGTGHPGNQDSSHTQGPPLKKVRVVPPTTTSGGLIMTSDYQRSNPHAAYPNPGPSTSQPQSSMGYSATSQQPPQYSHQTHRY

Structure (SMILES): CCC(=O)N1CCN(c2ccc(-n3c(=O)ccc4cnc5ccc(-c6cnc7ccccc7c6)cc5c43)cc2C(F)(F)F)CC1
- % of control [1]: 0.65%

Structure (SMILES): O=C(NOC[C@H](O)CO)c1ccc(F)c(F)c1Nc1ccc(I)cc1F
- % of control [2]: 100%

Structure (SMILES): Cn1cc(-n2cnc3c(NCc4nc5cc(Cl)c(Cl)cc5[nH]4)nc(N4CCOCC4)nc32)cn1
- % of control [3]: 2.02%

Structure (SMILES): CC[C@@H]1[C@H](F)C(=O)N[C@@H]1COc1nccc2cc(C(N)=O)c(OC)cc12 [ZIMLOVISERTIB]
- % of inhibition ([4]; at 0.01 µM): 5.4%
- % of inhibition ([4]; at 0.04 µM): 3.4%
- % of inhibition ([4]; at 0.2 µM): 15.7%
- % of inhibition ([4]; at 1 µM): -1.4%
- % of inhibition ([4]; at 5 µM): -7.8%

Structure (SMILES): CNC(=O)Nc1ccc(-c2nc(N3CC4CCC(C3)O4)c3cnn(C4CCC5(CC4)OCCO5)c3n2)cc1
- % of control [5]: 87%
- % of control [6]: 93%
- % of control [7]: 24%
- % of control [8]: 96%
- % of control [9]: 100%

Structure (SMILES): COCC(=O)NC/C=C/c1ccc2ncnc(Nc3ccc(Oc4ccc(C)nc4)c(C)c3)c2c1 [CP-724714]
- % of control [10]: 83%

Structure (SMILES): C=CC(=O)Nc1cc(-n2c(=O)ccc3cnc4ccc(-c5ccc(NS(C)(=O)=O)cc5)cc4c32)ccc1C
- % of control ([11]; at 1 µM): 76%
- % of control ([11]; at 10 µM): 62%
